# EP1879602B1, “USE OF CACAO POLYPHENOLS FOR CONTROLLING SKIN PIGMENTATION” (priority 2005, dated 2006)
# Test system: synthèse de la mélanine
# Assay: Intracellular melanin assay by spectrometry at 475 nm on reconstituted epidermis (Skinetic®) co-cultured with melanocytes
# Assay type: cell-based, humaine
# Conditions: positive control, concentration not given
# Source text: L'activité sur la pigmentation (effet dépigmentant et effet pigmentant) a été étudiée à travers • l'évaluation de l'activité de la tyrosinase • l'évaluation de la synthèse de la mélanine (étude qualitative de la mélanine intracellulaire par spectrométrie à 475 nm)
# L'étude a été faite sur des épidermes reconstitués (Skinetic®). Des kératinocytes d'origine humaine sont cultivés dans un milieu défini (MCDB 153 modifié) et supplémentés. Les cellules sont cultivées pendant 10 jours à l'interface air/liquide, le milieu de culture étant changé tous les deux jours.
# Les épidermes ainsi formés sont mis en co-culture avec des mélanocytes de phototypes II, IV et VI sur des filtres en polycarbonate. L'étude est réalisée entre le 11^ème et le 17^ème jour de la culture.
# L'essai est conduit en triplicate après 3 jours de contact.
# L'évaluation de la synthèse de la mélanine intracellulaire (étude qualitative) a été effectuée comme indiqué ci-dessus par spectrométrie à 475 nm après digestion des explants de peau humaine puis dissolution dans NaOH 1N et du diméthyl sulfoxyde pendant 30 minutes.
smiles,measurement,setting,value
O=c1cc(CO)occ1O [acide kojique],%,"change vs negative control, 4320 min",-42%
same,Absorbance (475 nm),"3 days contact, triplicate","0,107 ± 0,01"
